According to paper PMC9376960, “Ruthenium(II)–Tris-pyrazolylmethane Complexes Inhibit Cancer Cell Growth by Disrupting Mitochondrial Calcium Homeostasis” (Journal of Medicinal Chemistry, 2022):

Columns and labels:
[1] = Solubility in water (D2O) by 1H NMR; format: physicochemical; conditions: for solubility: D2O, 21°C, sum of chloro and aquo complex after 2 h, 1H NMR, Me2SO2 standard
Description: A suspension of the selected ruthenium complex (3–5 mg) in a D2O solution (0.7 mL) containing Me2SO2 as the internal standard[115] (3.36 × 10^–3 M) was vigorously stirred at 21 °C for 2 h. The resulting saturated solution was filtered over celite, transferred into an NMR tube, and analyzed by ^1H NMR and ^31P NMR spectroscopy (delay time = 3 s; number of scans = 20). The concentration (solubility) was calculated by the relative integral (starting complex + aquo complex, C^βH signal in the ^1H spectrum) with respect to Me2SO2 (δ/ppm = 3.14). NMR data are given in the Supporting Information (Figures S36–S47).

[2] = test system: 518A2; test: MTT antiproliferative assay; format: cell-based, human; conditions: 72 h, mean ± SD
Description: (§1) All of the cell lines were cultivated in DMEM medium (high glucose 4.5 g L^–1, PAA, Pasching, Austria) supplemented with gentamycin (50 μg mL^–1, Serva, Heidelberg, Germany) and 10% heat-inactivated fetal bovine serum (PAA). The medium for MRC5pd30 cells was further supplemented by 1% nonessential amino acids (Sigma-Aldrich, Prague, Czech Republic). All cells were cultured as adherent monolayers in a humidified incubator at 37 °C in a 5% CO2 atmosphere and subcultured twice a week with an appropriate plating density.
(§2) In vitro antiproliferative activity of Ru complexes was determined by the MTT or, alternatively, SRB assay as already described,[84] after 72 h of incubation of cells with various concentrations of the Ru complex. The reported IC50 values are an average of three independent experiments, each consisting of three replicates per concentration.

[3] = test system: HCT116; test: MTT antiproliferative assay; format: cell-based, human; conditions: 72 h, mean ± SD
Description: as §1, §2

[4] = test system: HeLa; test: MTT antiproliferative assay; format: cell-based, human; conditions: 72 h, mean ± SD
Description: as §1, §2

[5] = test system: MCF-7; test: MTT antiproliferative assay; format: cell-based, human; conditions: 72 h, mean ± SD
Description: as §1, §2

[6] = test system: MRC5pd30; test: MTT assay on noncancerous cells; format: cell-based, human; conditions: 72 h, mean ± SD
Description: as §1, §2

[7] = test system: HCT116 cells; test: Cellular uptake of Ru (ICP-MS); format: cell-based, human; conditions: HCT116, 15 μM, 24 h; mean ± SEM
Description: In these experiments, 1 × 10^6 HCT116 cells were seeded on 100 mm Petri dishes. After overnight preincubation in a drug-free medium, the cells were treated with the Ru complexes (15 μM) for 24 h. Afterward, the cells were extensively washed with PBS (37 °C), detached using 0.25% trypsin, washed twice with ice-cold PBS, and counted by an automatic cell counter. The cell pellets were digested using a microwave acid (HCl) digestion system (CEM Mars). The quantity of Ru taken up by the cells was determined by inductively coupled plasma mass spectrometry (ICP-MS). All experiments were carried out in triplicate.

[8] = test system: CHO-K1; test: MTT assay, wild-type cells; format: cell-based, Chinese hamster; conditions: 72 h
Description: The human cervical carcinoma HeLa cells and human colorectal carcinoma cells HCT116 were kindly supplied by Professor B. Keppler, University of Vienna (Austria). Human rhabdomyosarcoma RD cells were purchased from the American Type Culture Collection (ATCC, Manassas, VA). Human breast cancer MCF-7 cells, human skin melanoma 518A2 cells, and human MRC5pd30 cells derived from normal lung tissue were purchased from the European Collection of Authenticated Cell Cultures (ECACC) (Salisbury, U.K.). Chinese hamster ovary CHO-K1 cell line (wild type) and its derivative MMC-2 carrying the ERCC3/XPB mutation (NER-deficient) cell line were kindly supplied by Dr. […], Cancer Research Institute, Slovak Academy of Sciences, Bratislava (Slovakia). In vitro antiproliferative activity of Ru complexes was determined by the MTT or, alternatively, SRB assay as already described,[84] after 72 h of incubation of cells with various concentrations of the Ru complex. The reported IC50 values are an average of three independent experiments, each consisting of three replicates per concentration.

[9] = test system: HCT116 (3D); test: Cytotoxicity in 3D spheroids (colonospheres), Cell Titer-Glo 3D; format: cell-based, human; conditions: for effect on the morphology of 3D spheroids: 20 µM, 72 h, bright-field images; for IC50: Cell Titer-Glo, spheroids, 72 h of treatment
Description: A spontaneous spheroid formation was used to generate colonospheres derived from the HCT116 cell line. The HCT116 cells were seeded on 96-well ultralow attachment plates (1400 cells/well) and cultivated in a tumor sphere-forming medium (DMEM/F12, supplemented with B27 (Invitrogen), BSA, bFGF (10 ng mL^–1), and EGF (20 ng mL^–1)) for 4 days. After the incubation period, colonospheres were treated with Ru complexes for another 3 days. The viability of colonospheres was determined by the Cell Titer-Glo 3D cell viability assay (Promega) according to the manufacturer’s instructions. The reported IC50 values are the average of three independent experiments, each consisting of three replicates per concentration level. Bright-field images of the spheroids were taken as well to determine the effect on the morphology of the spheroids.

[10] = test system: mitochondria of HCT116 cells; test: Ru content in isolated mitochondria (ICP-MS); format: cell-based, human; conditions: HCT116, 10 μM, 24 h
Description: The HCT116 cells were seeded at a density of 3 × 10^6 cells/10 mL Petri dish and incubated overnight. The cells were treated with Ru complexes (10 μM) for 24 h, harvested, and washed with ice-cold PBS, and mitochondrial fractions were extracted by the Mitochondrial Isolation Kit (MITOISO2, Sigma-Aldrich) according to the manufacturer’s instructions. The Ru content in each sample was evaluated by ICP-MS. The measurement was performed in triplicate.

[11] = test system: HCT116 cells; test: Confocal microscopy imaging of actin and tubulin; format: cell-based, human; conditions: 24 h at IC50
Description: HCT116 cells were seeded on coverslips precoated with 0.1% gelatin in six-well culture plates at a density of 1 × 10^5 cells/well. […] Following the treatment, the cells were washed with PBS, fixed with 4% p-formaldehyde, washed, permeabilized with 0.1% Triton X-100, and blocked. Samples for actin staining were blocked with 1.5% BSA for 1 h and then stained with Alexa Fluor 488-conjugated Phalloidin (Thermo Fisher Scientific, 1:50 dilution, 20 min). Samples for tubulin staining were blocked with 5% goat serum for 1 h and incubated with primary antibody (anti-α-tubulin, Abcam, 1:200 dilution, 1 h) and Alexa Fluor-conjugated secondary antibody (goat antirabbit, Abcam, 1:500 dilution, 1 h). Both groups of samples were mounted with ProLong Diamond Antifade Mountant with DAPI (Invitrogen). Cells were visualized on a confocal microscope Leica TCS SP8 SMD.

Row | Substance | solubility [1] | IC50 [2] | IC50 [3] | IC50 [4] | IC50 [5] | IC50 [6] | Accumulation of ruthenium, ng Ru/10^6 cells [7] | solubility in water [1] | IC50 [8] | effect on the morphology of 3D spheroids [9] | fold more effective than cisplatin ([9]; 3D spheroids HCT116) | IC50 [9] | Ru in isolated mitochondria [10] | effect on structure, shape, and layout of tubulin and actin networks [11]
1 | [RuCl(κ^3-tpm)(PPh3){NCHN(Me)(CH)2}]Cl [compound 3] | 3.4 10^–3 mol·L^–1 | 33 ± 5 µM | 25 ± 1 µM | 91 ± 3 µM | 38 ± 8 µM | 83.6 ± 0.5 µM | 66.1 ± 8.0 ng Ru/10^6 cells |  |  |  |  |  |  | 
2 | [RuCl(κ^3-tpm)(PPh3)2]Cl [compound 1] |  | 2.6 ± 0.4 µM | 1.5 ± 0.1 µM | 4 ± 0.4 µM | 2.4 ± 0.6 µM | 5.8 ± 0.7 µM | 145.1 ± 5.9 ng Ru/10^6 cells | insoluble in water | 6.3 ± 0.2 µM | almost completely disintegrated | approximately 18 fold | 2.5 ± 0.6 µM | 467 ± 66 pg Ru/10^6 cells | did not significantly affect
3 | [RuCl(κ^3-tpm)(PPh3){P(OMe)3}]Cl [compound 7] | 3.1 10^–3 mol·L^–1 | 6.8 ± 0.8 µM | 6.7 ± 0.4 µM | 10 ± 2 µM | 6 ± 1 µM | 24 ± 1 µM | 63.3 ± 6.0 ng Ru/10^6 cells |  | 25.6 ± 0.5 µM | heterogeneous morphology with several dissociated cell clumps |  | 12.2 ± 2.5 µM | 127 ± 24 pg Ru/10^6 cells | did not significantly affect
4 | [RuCl(κ^3-tpm)(PPh3)(CNCy)]Cl [compound 8] | 1.1 10^–3 mol·L^–1 | 10 ± 2 µM | 8 ± 2 µM | 15 ± 1 µM | 10 ± 2 µM | 19.7 ± 0.4 µM | 59.4 ± 0.6 ng Ru/10^6 cells |  | 16 ± 4 µM | heterogeneous morphology with several dissociated cell clumps |  | 12.1 ± 2.7 µM | 70 ± 15 pg Ru/10^6 cells | did not significantly affect
5 | [RuCl(κ^3-tpm)(PPh3){CNCH2P(O)(OEt2)2}]Cl [compound 9] | 4.6 10^–3 mol·L^–1 | 38 ± 7 µM | 35 ± 6 µM | 36 ± 2 µM | 43 ± 7 µM | 50.8 ± 0.4 µM | 16.2 ± 1.4 ng Ru/10^6 cells |  |  |  |  |  |  | 
